# From patent publication US20230085307A1, “PYRIDAZINONE COMPOUND AND HERBICIDE” (NISSAN CHEMICAL CORPORATION, priority 2019, published 2023)
# Experiments:
# Format in all cases: in vivo
# rapeseed = test: Test Example 5: effect on crop by foliage application, plastic box (Table 20, symbol g); conditions: three weeks after application
# Procedure, shortened: (§1)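 Post-emergence foliar test in sterilized diluvial soil. Compound applied as water-diluted emulsion at a predetermined rate to 14-day-old plants; evaluation at three weeks.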
# wheat = test: Test Example 5: effect on crop by foliage application, plastic box (Table 20, symbol e); conditions: three weeks after application
# Procedure, shortened: as §1
# beet = test: Test Example 4: effect on crop by soil treatment (Table 19, symbol f)
# Procedure, shortened: (§2)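 Scoring uses the grading scale of an earlier test, three weeks post-application. Treatment consists of spraying a diluted emulsion formulation across the surface of sterilized diluvial soil in which seeds are buried near 1.5 cm deep; boxes are kept in a greenhouse between 25° C. and 30° C.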
# soybean [1] = test: Test Example 4: effect on crop by soil treatment (Table 19, symbol d)
# Procedure, shortened: as §2
# directly sowed rice = test: Test Example 3: effect on crop by foliage application, Wagner pot (Table 18, symbol b)
# Procedure, shortened: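 Plants were sown in alluvial soil held under 0.1–0.5 cm standing water and grown 14 days in a greenhouse at 25–30 °C. An emulsifiable formulation, water-diluted to the set dose, was then sprayed onto the foliage, and effects were scored three weeks later using previously defined criteria.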
# corn = test: Test Example 4: effect on crop by soil treatment (Table 19, symbol c)
# Procedure, shortened: as §2
# transplanted rice = test: Test Example 1: effect on crop, application before weed generation under submerged conditions (Table 16, symbol a)
# Description: [Test Example 1] Herbicidal Activity Test by Application before Weed Generation under Submerged Conditions After alluvial soil was placed into 1/10000 are of Wagner pot, water was poured and mixed to form a submerged condition having a water depth of 4 cm. Seeds of late watergrass, Japanese bulrush, and oval-leafed pondweed were sowed in a mixed manner in the aforementioned pot, and then 2.5 leaf stage rice plant seedlings were transplanted thereto. On the day of sowing seeds, the emulsion agent of the compound of the present invention prepared according to Formulation Example 2 was diluted with water so as to achieve a predetermined herbicide amount, and the diluted emulsion agent was applied to the surface of the water. The pot was placed in a greenhouse at 25° C. to 30° C. for growth of the plants. Three weeks after the herbicide application, the effect of the herbicide on each plant was evaluated according to the following criteria. Evaluation Criteria 5: Herbicidal rate of 90% or more (almost completely withered) 4: Herbicidal rate of 70% or more and less than 90% 3: Herbicidal rate of 40% or more and less than 70% 2: Herbicidal rate of 20% or more and less than 40% 1: Herbicidal rate of 5% or more and less than 20% 0: Herbicidal rate of 5% or less (almost no effect)
# soybean [2] = test: Test Example 5: effect on crop by foliage application, plastic box (Table 20, symbol d); conditions: three weeks after application
# Procedure, shortened: as §1
# [3] = amount of applied herbicide 214 g/ha
# [4] = amount of applied herbicide 320 g/ha
Compound,"g: rapeseed, effect on crop grade (rapeseed; 214 g/ha)","e: wheat, effect on crop grade (wheat; 214 g/ha)","f: beet, effect on crop grade (beet; [3])","d: soybean, effect on crop grade (soybean [1]; [3])",effect on directly sowed rice (b) (directly sowed rice; 214 g/ha),"c: corn, effect on crop grade (corn; [3])","Effect on crop, a: transplanted rice (transplanted rice; [3])","d: soybean, effect on crop grade (soybean [2]; 214 g/ha)","g: rapeseed, effect on crop grade (rapeseed; 320 g/ha)","e: wheat, effect on crop grade (wheat; 320 g/ha)","f: beet, effect on crop grade (beet; [4])","d: soybean, effect on crop grade (soybean [1]; [4])",effect on directly sowed rice (b) (directly sowed rice; 320 g/ha),"c: corn, effect on crop grade (corn; [4])","Effect on crop, a: transplanted rice (transplanted rice; [4])","d: soybean, effect on crop grade (soybean [2]; 320 g/ha)"
"COc1ccc2c(-c3c(O)c(C)nn(C)c3=O)c(-c3ccccc3OC)sc2c1 [Compound No. 3-065, 5-hydroxy-4-(6-methoxy-2-(2-methoxyphenyl)benzo[b]thiophen-3-yl)-2,6-dimethylpyridazin-3(2H)-one]",5 (Herbicidal rate of 90% or more (almost completely withered)),2 (Herbicidal rate of 20% or more and less than 40%),3 (Herbicidal rate of 40% or more and less than 70%),0 (Herbicidal rate of 5% or less (almost no effect)),1 (Herbicidal rate of 5% or more and less than 20%),0 (Herbicidal rate of 5% or less (almost no effect)),0 (Herbicidal rate of 5% or less (almost no effect)),5 (Herbicidal rate of 90% or more (almost completely withered)),,,,,,,,
"COc1ccc2c(-c3c(O)c(Cl)nn(C)c3=O)c(-c3ccccc3OC)sc2c1 [Compound No. 3-088, 6-chloro-5-hydroxy-4-(6-methoxy-2-(2-methoxyphenyl)benzo[b]thiophen-3-yl)-2-methylpyridazin-3(2H)-one]",,,,,,,,,5 (Herbicidal rate of 90% or more (almost completely withered)),0 (Herbicidal rate of 5% or less (almost no effect)),3 (Herbicidal rate of 40% or more and less than 70%),1 (Herbicidal rate of 5% or more and less than 20%),0 (Herbicidal rate of 5% or less (almost no effect)),0 (Herbicidal rate of 5% or less (almost no effect)),0 (Herbicidal rate of 5% or less (almost no effect)),3 (Herbicidal rate of 40% or more and less than 70%)
"COc1ccccc1-c1sc2cc(OCC(F)(F)F)ccc2c1-c1c(O)c(C)nn(C)c1=O [Compound No. 3-116, 5-hydroxy-4-(2-(2-methoxyphenyl)-6-(2,2,2-trifluoroethoxy)benzo[b]thiophen-3-yl)-2,6-di methylpyridazin-3 (2H)-one]",,,,,,,,,5 (Herbicidal rate of 90% or more (almost completely withered)),3 (Herbicidal rate of 40% or more and less than 70%),5 (Herbicidal rate of 90% or more (almost completely withered)),1 (Herbicidal rate of 5% or more and less than 20%),5 (Herbicidal rate of 90% or more (almost completely withered)),0 (Herbicidal rate of 5% or less (almost no effect)),4 (Herbicidal rate of 70% or more and less than 90%),5 (Herbicidal rate of 90% or more (almost completely withered))
